The target of one data set is CCK-A receptor. Nature of the data set: CCK-A receptor binding (Pancreas Assay). The procedure: Exp & Ther. 261, 1056-1063, 1992.
The binding affinity of the compounds of the invention for the CCK-A receptor (Pancreas Assay) and CCK-B receptor (guinea pig cortex assay) was determined using the procedure of G Dal Forno et al J. Pharmacol. Exp & Ther. 261-1056-1063.

The target of a further data set is T1, CCK-B receptor (Cavia porcellus, UniProt H0VZC5).
T1 construct: CCK-B receptor (guinea pig cortex assay); from tissue; host or cells: guinea pig cortex
T1 sequence (H0VZC5 1-426): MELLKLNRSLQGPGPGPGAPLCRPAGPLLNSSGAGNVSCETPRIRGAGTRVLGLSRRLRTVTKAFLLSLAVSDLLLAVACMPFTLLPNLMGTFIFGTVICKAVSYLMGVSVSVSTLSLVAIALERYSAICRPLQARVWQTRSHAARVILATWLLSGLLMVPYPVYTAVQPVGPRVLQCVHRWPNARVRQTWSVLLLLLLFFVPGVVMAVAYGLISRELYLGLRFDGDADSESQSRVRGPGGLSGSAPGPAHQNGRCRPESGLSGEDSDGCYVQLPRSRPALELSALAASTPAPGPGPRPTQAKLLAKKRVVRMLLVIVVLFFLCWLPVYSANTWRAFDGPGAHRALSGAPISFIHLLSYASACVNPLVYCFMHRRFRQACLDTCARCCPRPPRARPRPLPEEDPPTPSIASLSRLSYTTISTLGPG
Nature of the data set: CCK-B receptor binding (guinea pig cortex assay). The procedure: The greater affinity of the compounds of the invention for the CCK-B receptor over the CCK-A receptor has also been established using the CCK receptor binding assays described by G Dal Forno et al., J. Pharmcol. Exp & Ther. 261, 1056-1063, 1992.
The binding affinity of the compounds of the invention for the CCK-A receptor (Pancreas Assay) and CCK-B receptor (guinea pig cortex assay) was determined using the procedure of G Dal Forno et al J. Pharmacol. Exp & Ther. 261-1056-1063. The pKi values determined with representative compounds of invention were as follows: […]

In a further data set the test system is mice. In words: oral administration to mice, observation of untoward effects at anxiolytic doses. In kind it is in vivo. To be noted: orally; for untoward effects: at doses at which the compounds exhibit anxiolytic activity. The source says:
(§1) The compounds of the invention are essentially non-toxic and therapeutically useful doses.

In another data set the test system is rats. In words: oral administration to rats, observation of untoward effects at anxiolytic doses. Conditions: orally. It counts as in vivo.
Source text: as §1

[1] abbreviates: CCK-B receptor, guinea pig cortex assay, read-out: pKi CCK-B (converted).

Counter-ions that a name gives are not always drawn. Like-named read-outs stand apart in the source and are kept apart here.

For the compound `O=C(Nc1ccccc1)NC1C(=O)N(CCN2CCOCC2)c2ccccc2N(CC23CC4CC(CC(C4)C2)C3)C1=O` (single isomer, unassigned) [Example 11 (isomer 1), N-[1-(1-Adamantylmethyl)-2,4-dioxo-5-[2-(4-morpholino)ethyl]-2,3,4,5-tetrahydro-1H-benzodiazepin-3-yl]-N'-phenylurea Isomer 1], the “pKi CCK-A” value at CCK-A receptor was found to be 5.69. Further, the Ki on CCK-B receptor (setting [1]) is 0.214 nM. In addition, in the data set with mice, the anxiolytic activity entry was “exhibit anxiolytic activity” and the untoward effects entry is given as “no untoward effects were observed”.

Regarding `O=C(Nc1ccccc1)NC1C(=O)N(CCN2CCOCC2)c2ccccc2N(CC23CC4CC(CC(C4)C2)C3)C1=O` (single isomer, unassigned; (-)) [Example 18, (-)[1-(1-Adamantylmethyl)-2,4-dioxo-5-[2-(4-morpholino)ethyl]-2,3,4,5-tetrahydro-1H-1,5-benzodiazepin-3-yl]-N'-phenylurea, hydrochloride salt], the anxiolytic activity entry with mice and with rats was “exhibit anxiolytic activity” throughout. For the same compound, the untoward effects result in the data set with mice and in the data set with rats (at doses at which the compounds exhibit anxiolytic activity) was “no untoward effects were observed” throughout.

With `CC(C)CCN1C(=O)C(NC(=O)Nc2ccccc2)C(=O)N(CCN2CCOCC2)c2ccccc21` (stereo not shown) [Example 1, N-[2,4-Dioxo-1-(3-methyl-1-butyl)-5-[2-(4-morpholinyl)ethyl]-2,3,4,5-tetrahydro-1H-1,5-benzodiazepin-3-yl]-N'-phenylurea], the “pKi CCK-A” value on CCK-A receptor was 6.17. The Ki on CCK-B receptor (setting [1]) was 2.88 nM.

For the compound `CC(C)CCN1C(=O)C(NC(=O)Nc2ccccc2)C(=O)N(CCN2CCCCC2)c2ccccc21` (stereo not shown) [Example 2, N-[2,4-Dioxo-1-(3-methyl-1-butyl)-5-[2-(1-piperidino)ethyl]-2,3,4,5-tetrahydro-1H-1,5-benzodiazepin-3-yl]-N'-phenylurea], the “pKi CCK-A” value at CCK-A receptor was 5.69. For the same compound, the Ki at CCK-B receptor (setting [1]) is 6.76 nM.

`CC(C)CCN1C(=O)C(NC(=O)Nc2ccccc2)C(=O)N(CCN(C)C)c2ccccc21` (stereo not shown) [Example 3, N-[5-[2-(Dimethylamino)ethyl]-2,4-dioxo-1-(3-methyl-1-butyl) -2,3,4,5-tetrahydro-1H-1,5-benzodiazepin-3-yl]-N'-phenylurea]: the “pKi CCK-A” value at CCK-A receptor is 5.48. The Ki at CCK-B receptor (setting [1]) was 4.68 nM.

Consider `COc1ccc(NC(=O)NC2C(=O)N(CCC(C)C)c3ccccc3N(CCN3CCOCC3)C2=O)cc1` (stereo not shown) [Example 4, N-[2,4-Dioxo-1-(3-methyl-1-butyl)-5-[2-(4-morpholino)ethyl]-2,3,4,5-tetrahydro-1H-1,5-benzodiazepin-3-yl]-N'-(4-methoxyphenyl)urea], for which, on CCK-A receptor, the “pKi CCK-A” value was 5.29. Also, the Ki at CCK-B receptor (setting [1]) is 7.94 nM.

On to `CC(C)CCN1C(=O)C(NC(=O)Nc2ccc(O)cc2)C(=O)N(CCN2CCOCC2)c2ccccc21` (stereo not shown) [Example 5, N-[2,4-Dioxo-1-(3-methyl-1-butyl)-5-[2-(4-morpholinyl)ethyl]-2,3,4,5-tetrahydro-1H-1,5-benzodiazepin-3-yl]-N'-(4-hydroxyphenyl)urea], for which the “pKi CCK-A” value at CCK-A receptor stood at 5.08. Besides, on CCK-B receptor (setting [1]), the Ki was 7.41 nM.

Turning to `CCN(CC)CCN1C(=O)C(NC(=O)Nc2ccccc2)C(=O)N(CCC(C)C)c2ccccc21` (stereo not shown) [Example 6], the “pKi CCK-A” value at CCK-A receptor came out at 5.39. Further, the Ki at CCK-B receptor (setting [1]) is 1.58 nM.

Take `CN(C)CCN1C(=O)C(NC(=O)Nc2ccccc2)C(=O)N(CC23CC4CC(CC(C4)C2)C3)c2ccccc21` (stereo not shown) [Example 7, N-[1-(1-Adamantylmethyl)-5-[2-(dimethylamino)ethyl]-2,4-dioxo-2,3,4,5-tetrahydro-1H-1,5-benzodiazepin-3-yl]-N'-phenylurea]: the “pKi CCK-A” value on CCK-A receptor amounted to 5.49. Also, the Ki at CCK-B receptor (setting [1]) was 1.29 nM.

With `CN(C)CCCN1C(=O)C(NC(=O)Nc2ccccc2)C(=O)N(CC23CC4CC(CC(C4)C2)C3)c2ccccc21` (stereo not shown) [Example 8, N-[1-(1-Adamantylmethyl)-5-[3-(dimethylamino)propyl]-2,4-dioxo-2,3,4,5-tetrahydro-1H-1,5-benzodiazepin-3-yl]-N'-phenylurea], at CCK-A receptor, the “pKi CCK-A” value is on record as 4.69. For the same compound, on CCK-B receptor (setting [1]), the Ki was 3.63 nM.

Take `O=C(Nc1ccccc1)NC1C(=O)N(CCN2CCOCC2)c2ccccc2N(CC23CC4CC(CC(C4)C2)C3)C1=O` (stereo not shown) [Example 9, N-[1-(1-Adamantylmethyl)-2,4-dioxo-5-[2-(4-morpholino)ethyl]-2,3,4,5-tetrahydro-1H-benzodiazepin-3-yl]-N'-phenylurea]: the “pKi CCK-A” value at CCK-A receptor was found to be 5.69. Besides, at CCK-B receptor (setting [1]), the Ki was 0.575 nM.

Take `O=C(Nc1ccccc1)NC1C(=O)N(CCN2CCCC2)c2ccccc2N(CC23CC4CC(CC(C4)C2)C3)C1=O` (stereo not shown) [Example 10, N-[1-(1-Adamantylmethyl)-2,4-dioxo-5-[2-(1-pyrrolidino)ethyl]-2,3,4,5-tetrahydro-1H-benzodiazepin-3-yl]-N'-phenylurea]: the “pKi CCK-A” value on CCK-A receptor is 5.02. For the same compound, the Ki on CCK-B receptor (setting [1]) is 1.05 nM.

For the compound `N[C@@H](CO)CN1C(=O)C(NC(=O)Nc2ccccc2)C(=O)N(CC23CC4CC(CC(C4)C2)C3)c2ccccc21` (stereo partly drawn) [Example 12, N-[1-(1-Adamantylmethyl)-2,4-dioxo-5-[(3-hydroxy-2(R)amino)propyl]-2,3,4,5-tetrahydro-1H-1,5-benzodiazepin-3-yl]-N'-phenylurea hydrochloride], the “pKi CCK-A” value at CCK-A receptor is on record as 5.04. The “pKi CCK-B” value at CCK-B receptor (CCK-B receptor, guinea pig cortex assay) was found to be 8.18.

In the case of `CCN(CC)CCN1C(=O)C(NC(=O)Nc2ccccc2)C(=O)N(CC2CCCCC2)c2ccccc21` (stereo not shown) [Example 13, N-[1-(Cyclohexylmethyl)-2,4-dioxo-5-[(2-diethylamino)ethyl]-2,3,4,5-tetrahydro-1H-1,5-benzodiazepin-3-yl]-N'-phenylurea], the “pKi CCK-A” value at CCK-A receptor turned out to be 5.82. Besides, the Ki at CCK-B receptor (setting [1]) is 1.02 nM.

Regarding `O=C(Nc1ccccc1)NC1C(=O)N(CCN2CCOCC2)c2cc(F)ccc2N(CC23CC4CC(CC(C4)C2)C3)C1=O` (stereo not shown) [Example 14, N-[1-(1-Adamantylmethyl)-2,4-dioxo-7-fluoro-5-[2-(4-morpholino)ethyl]-2,3,4,5-tetrahydro-1H-1,5-benzodiazepin-3-yl]-N'-phenylurea], at CCK-A receptor, the “pKi CCK-A” value was 5.88. Also, the Ki at CCK-B receptor (setting [1]) was 4.37 nM.

As to `CC(C)CCN1C(=O)C(NC(=O)Nc2ccc(Cl)cc2)C(=O)N(CCN2CCOCC2)c2ccccc21` (stereo not shown) [Example 15, N-[1-(3-methyl-1-butyl)-2,4-dioxo-5-[2-(4-morpholino)ethyl]-2,3,4,5-tetrahydro-1H-benzodiazepin-3-yl]-N'-(4-chlorophenyl)urea], on CCK-A receptor, the “pKi CCK-A” value is 5.99. Moreover, the Ki on CCK-B receptor (setting [1]) was 1.95 nM.

`CC(C)CCN1C(=O)C(NC(=O)Nc2ccc(C(F)(F)F)cc2)C(=O)N(CCN2CCOCC2)c2ccccc21` (stereo not shown) [Example 16, N-[2,4-Dioxo-1-(3-methyl-1-butyl)-5-[2-(4-morpholino)ethyl]-2,3,4,5-tetrahydro-1H-1,5-benzodiazepin-3-yl]-N'-(4-trifluoromethyl)phenylurea]: the “pKi CCK-A” value at CCK-A receptor was found to be 5.83. Moreover, the Ki on CCK-B receptor (setting [1]) is 3.63 nM.

For `Cc1cccc(NC(=O)NC2C(=O)N(CCN3CCCCCC3)c3ccccc3N(c3ccccc3)C2=O)c1` (stereo not shown) [Example 17, N-[2,4-Dioxo-1-[2-(hexamethyleneimino)ethyl]-5-phenyl-2,3,4,5-tetrahydro-1H-benzodiazepin-3-yl]-N'-(3-tolyl)urea], at CCK-A receptor, the “pKi CCK-A” value amounted to 5.08. The compound also had a Ki on CCK-B receptor of 2 nM.

Values taken from US5716953A, “1,5-benzodiazepine derivatives” (Glaxo Wellcome S.p.A., priority 1993, dated 1998).
